This note sets out measurements from patent US5686486A, “4-hydroxy-benzopyran-2-ones and 4-hydroxy-cycloalkyl[b]pyran-2-ones useful to treat retroviral infections” (priority 1995, dated 1997).

Where “and” joins values, the source holds several entries; their conditions need not be identical. Equal values may be shown once. Where a name gives a salt, the structure may show the parent alone. Read-outs that look alike come from different tables or passages of the source.

The target of the assay is HIV-1 protease (Human immunodeficiency virus type 1 group M subtype B, UniProt P04585). In words: biochemical. As to conditions: for inhibition at 20 µM: read-out: HIV-1 Protease % Inhib, dose 20.000 uM; for inhibition at 200 µM: read-out: HIV-1 Protease % Inhib, dose 200.000 uM; for IC50: HIV-1 Protease IC50. On the procedure:
The HIV protease screening assay is based on fluorescently labeled substrate which can be resolved from nonlabeled cleavage product using special beads coated with streptavidin. The substrate is biotinylated at the amino terminal arginine and fluorescently labeled with fluorescein isothiocynate (FITC) at the carboxyl terminal lysine. This assay has been employed to detect novel, nonpeptidic inhibitors of HIV-1 protease. Substrate (20 μl of 0.2 μM), sample (10 μl of desired concentration), and enzyme (10 μl of 0.1 μM) are added to a 96 well pandex plate. The assay is run in 0.1M sodium acetate buffer at pH 5.5 in the presence of 1.0M sodium chloride and 0.05% NP-40 with incubated in the dark for one hour at room temperature. Strepavidin coated polystyrene beads {40 μl of 0.1% (w/v)} are added and the plate is incubated in the dark for an additional half hour. The labeled cleavage product is separated from the unreacted substrate via filtration and is read on the Idexx screen machine. The data are analyzed by appropriate computer algorithms to ascertain percent inhibition values.

[1] abbreviates: read-out: HIV-1 Protease % Inhib, dose 10.000 uM.
[2] abbreviates: read-out: HIV-1 Protease % Inhib, dose 100.000 uM.
[3] abbreviates: dose 1.000 uM, read-out: HIV-1 Protease % Inhib.
Setting [4] is: dose 10.000 uM, read-out: HIV-1 Protease % Inhib.
Setting [5] is: dose 100.000 uM, read-out: HIV-1 Protease % Inhib.
[6] abbreviates: read-out: HIV-1 Protease % Inhib, dose 1.000 uM.

On to `O=c1oc2ccccc2c(O)c1CCc1ccccc1` [Example 1, 4-Hydroxy-3-phenethylcoumarin], for which the inhibition at 20 µM is 51.6% and the inhibition at 200 µM turned out to be 92.8%. The inhibition at 10 µM under setting [1] was 15.3%. Further, the inhibition at 100 µM under setting [2] is 66.9%.

Consider `O=c1oc2ccccc2c(O)c1CCCc1ccccc1` [Example 2, 4-Hydroxy-3-(3-phenylpropyl)coumarin], for which the inhibition at 20 µM came to 48.1% and the inhibition at 200 µM worked out at 97.5%. In addition, under setting [1], the inhibition at 10 µM was found to be 15.6%. In addition, the inhibition at 100 µM under setting [2] was 63.6%.

For the compound `O=c1oc2ccccc2c(O)c1Cc1ccc2ccccc2c1` [Example 3, 4-Hydroxy-3-(2-naphthylmethyl)coumarin], under setting [3], the inhibition at 1 µM is < 10%. For the same compound, the inhibition at 10 µM under setting [4] is < 10%. For the same compound, under setting [5], the inhibition at 100 µM is 48.8%.

For the compound `O=c1oc2ccccc2c(O)c1CC(c1ccccc1)c1ccccc1` [Example 4, 4-Hydroxy-3-(2,2-diphenylethyl)-coumarin], the inhibition at 1 µM under setting [6] was < 10%. Under setting [1], the inhibition at 10 µM stood at 12.4%. Moreover, the inhibition at 100 µM under setting [2] came to 45.3%.

With `CC(Cc1c(O)c2ccccc2oc1=O)c1ccccc1` (centres unmarked) [Example 5, 4-Hydroxy-3-(2-phenylpropyl)coumarin], under setting [6], the inhibition at 1 µM came to 15.4%. The inhibition at 10 µM under setting [1] amounted to 55.4%. Besides, the inhibition at 100 µM under setting [2] is 95%.

In the case of `CC(c1ccccc1)c1c(O)c2ccccc2oc1=O` (stereo not drawn) [Example 6, 4-Hydroxy-3-(α-methylbenzyl)-coumarin], the inhibition at 20 µM turned out to be 65.6% and the inhibition at 200 µM is 75.2%. Further, the inhibition at 10 µM under setting [1] was found to be 29.2%. In addition, the inhibition at 100 µM under setting [2] turned out to be 88.5%.

With `O=c1oc2ccccc2c(O)c1C(c1ccccc1)c1ccccc1` [Example 7, 4-Hydroxy-3-diphenylmethylcoumarin], the IC50 (commonly the concentration needed to halve the response being measured) came out at 21.2 µM. For the same compound, under setting [6], the inhibition at 1 µM is < 10%. Also, the inhibition at 10 µM under setting [1] is 42.5%. Further, the inhibition at 100 µM under setting [2] is 96.3%.

With `CC(O)CC(c1ccccc1)c1c(O)c2ccccc2oc1=O` (centres unmarked) [Example 8, 4-Hydroxy-3-(3-hydroxy-1-phenylbutyl)-coumarin], the midpoint of inhibition, the IC50, lay at 41.7 µM. Moreover, the inhibition at 1 µM under setting [6] is < 10%. Moreover, under setting [1], the inhibition at 10 µM came to 23.7%. For the same compound, the inhibition at 100 µM under setting [2] was determined as 93.3%.

The compound `CC(C)C(c1ccccc1)c1c(O)c2ccccc2oc1=O` (centres unmarked) [Example 9, 4-Hydroxy-3-(2-methyl-1-phenylpropyl)-coumarin] yielded an IC50 of 10.6 µM. For the same compound, under setting [6], the inhibition at 1 µM worked out at 12.1%. Moreover, the inhibition at 10 µM under setting [1] turned out to be 65%. The inhibition at 100 µM under setting [2] is 98.3%.

For the compound `CC(C)C(c1ccc(Br)cc1)c1c(O)c2ccccc2oc1=O` (centres unmarked) [Example 12, 3-(1-(4-Bromophenyl)-2-methylpropyl)-4-hydroxycoumarin], the IC50 is 12.1 µM and the inhibition at 200 µM was found to be 87%. In addition, the inhibition at 0.098 µM (read-out: HIV-1 Protease % Inhib, dose 0.098 uM) was < 10%. For the same compound, the inhibition at 0.196 µM (read-out: HIV-1 Protease % Inhib, dose 0.196 uM) was < 10%. Moreover, the inhibition at 0.39 µM (read-out: HIV-1 Protease % Inhib, dose 0.390 uM) was < 10%. In addition, the inhibition at 0.78 µM (read-out: HIV-1 Protease % Inhib, dose 0.780 uM) was 14%. Where the note is “read-out: HIV-1 Protease % Inhib, dose 1.560 uM”, the inhibition at 1.56 µM turned out to be 17.1%. For the same compound, for the setting “read-out: HIV-1 Protease % Inhib, dose 3.130 uM”, the inhibition at 3.13 µM is 25.4%. Besides, the inhibition at 6.25 µM (read-out: HIV-1 Protease % Inhib, dose 6.250 uM) stood at 31.9%. Also, where the note is “read-out: HIV-1 Protease % Inhib, dose 12.500 uM”, the inhibition at 12.5 µM was determined as 53.8%. Further, the inhibition at 25 µM (read-out: HIV-1 Protease % Inhib, dose 25.000 uM) stood at 66.5%. Also, the inhibition at 50 µM (read-out: HIV-1 Protease % Inhib, dose 50.000 uM) stood at 74.7%. Further, the inhibition at 100 µM under setting [2] was determined as 87.4%.

Take `O=c1oc2ccccc2c(O)c1C(Cc1ccccc1)c1ccccc1` (centres unmarked) [Example 13, 3-(1,2-Diphenylethyl)4-hydroxycoumarin]: the inhibition at 1 µM under setting [6] was < 10%. Under setting [1], the inhibition at 10 µM was found to be 34.7%. In addition, under setting [2], the inhibition at 100 µM came to 74.6%.

For `CC(C)CC(c1ccccc1)c1c(O)c2ccccc2oc1=O` (centres unmarked) [Example 14, 4-Hydroxy-3-(3-methyl-1-phenylbutyl)-coumarin], under setting [6], the inhibition at 1 µM is 32.2%. Further, the inhibition at 10 µM under setting [1] was found to be 64.6%. Moreover, the inhibition at 100 µM under setting [2] was 87.1%.

In the case of `O=c1oc2ccccc2c(O)c1C(c1ccccc1)C1CC1` (centres unmarked) [Example 15, 3-(Cyclopropylphenylmethyl)-4-hydroxycoumarin], half-maximal inhibition (IC50) was put at 1.25 µM. For the same compound, the inhibition at 1 µM under setting [6] was found to be 43.8%. The inhibition at 10 µM under setting [1] came to 89.6%.

`O=c1oc2ccccc2c(O)c1C(CCc1ccccc1)c1ccccc1` (centres unmarked) [Example 16, 4-Hydroxy-3-(1,3-diphenylpropyl)-coumarin]: the inhibition at 1 µM under setting [6] was < 10%. Under setting [1], the inhibition at 10 µM came out at 48.3%.

Take `O=c1oc2ccccc2c(O)c1C(CC1CCCCC1)c1ccccc1` (centres unmarked) [Example 17, 3-(2-Cyclohexyl-1-phenylethyl)-4-hydroxycoumarin]: the inhibition at 1 µM under setting [6] was < 10%. In addition, the inhibition at 10 µM under setting [1] was determined as 27.6%.

Regarding `CCCC(c1ccc(C)cc1)c1c(O)c2ccccc2oc1=O` (centres unmarked) [Example 18, 4-Hydroxy-3-(1-(4-methylphenyl)-butyl)-coumarin], the inhibition at 1 µM under setting [6] was found to be 13.4%. Also, the inhibition at 10 µM under setting [1] is 52.5%.

As to `CCCC(c1ccc(CC)cc1)c1c(O)c2ccccc2oc1=O` (centres unmarked) [Example 19, 3-(1-(4-Ethylphenyl)-butyl)-4-hydroxycoumarin], the inhibition at 1 µM under setting [6] is < 10%. Further, under setting [1], the inhibition at 10 µM was determined as 36.8%.

Turning to `CCC(c1c(O)c2ccccc2oc1=O)c1cccc2ccccc12` (centres unmarked) [Example 20, 4-Hydroxy-3-(1-(1-naphthyl)-propyl)-coumarin], the inhibition at 1 µM under setting [6] is < 10%. In addition, under setting [1], the inhibition at 10 µM is 20.3%. Also, the inhibition at 100 µM under setting [2] came to 79.8%.

On to `O=c1oc2ccccc2c(O)c1C(=Cc1ccccc1)c1ccccc1` [Example 21, 3-(1,2-Diphenylethenyl)4-hydroxycoumarin], for which, under setting [3], the inhibition at 1 µM is < 10%. Under setting [4], the inhibition at 10 µM turned out to be 12.1%. The inhibition at 100 µM under setting [5] came out at 74.3%.

Regarding `CC(c1cccc(C(=O)NCC(=O)OC(C)(C)C)c1)c1c(O)c2ccccc2oc1=O` (centres unmarked) [Example 22, 4-Hydroxy-3-[1-[3-[[[(1,1-dimethylethoxycarbonyl)methyl]amino]carbonyl]phenyl]ethyl]-coumarin], the inhibition at 1 µM under setting [6] was < 10%. Under setting [1], the inhibition at 10 µM is < 10%. The inhibition at 100 µM under setting [2] was found to be 58.7%.

On to `CCC(c1cccc(NC(=O)CCNC(=O)OC(C)(C)C)c1)c1c(O)c2ccccc2oc1=O` (centres unmarked) [Example 23, 4-Hydroxy-3-[1-[3-[[3-[(1,1-dimethylethoxycarbonyl)amino]-1-oxopropyl]amino]phenyl]propyl]-coumarin], for which the IC50 is 0.66 µM and 0.7 µM. Moreover, the “HIV-1 Protease % Inhib” value (dose 100.000 uM) amounted to 104.2%. For the same compound, under setting [6], the inhibition at 1 µM was found to be 46.6%. Under setting [1], the inhibition at 10 µM stood at 96.6%. The inhibition at 100 µM under setting [2] was 104%.

For the compound `CCC(c1cccc(NC(=O)CCN)c1)c1c(O)c2ccccc2oc1=O` (centres unmarked) [Example 24, 3-[1-[3-[(3-Amino-1-oxopropyl)amino]phenyl]propyl]-4-hydroxy-coumarin, trifluoroacetate (salt)], the inhibition at 1 µM under setting [6] is < 10%. The inhibition at 10 µM under setting [1] was found to be 24.2%. Also, the inhibition at 100 µM under setting [2] is 83.7%.

In turn, `CCC(c1cccc(NC(=O)CCc2ccccc2)c1)c1c(O)c2ccccc2oc1=O` (centres unmarked) [Example 25, 4-Hydroxy-3-[1-[3-[(1-oxo-3-phenylpropyl)amino]phenyl]propyl]-coumarin] gave an IC50 of 5.2 µM. Moreover, under setting [6], the inhibition at 1 µM worked out at 11.4%. Moreover, the inhibition at 10 µM under setting [1] was 78.6%. Besides, the inhibition at 100 µM under setting [2] was found to be 115%.

As for `CC(c1cccc(C(=O)NCc2nc3ccccc3[nH]2)c1)c1c(O)c2ccccc2oc1=O` (centres unmarked) [Example 26, Coumarin, 3-[1-[3-[[[(2-benzimidazo131)methyl]amino]carbonyl]phenyl]ethyl]-4-hydroxy], it took 20.3 µM to reach half-maximal inhibition (IC50). Besides, the “HIV-1 Protease % Inhib” value (dose 100.000 uM) was 80%. Besides, the inhibition at 1 µM under setting [6] is < 10%. Further, the inhibition at 10 µM under setting [1] was 53.6%. For the same compound, the inhibition at 100 µM under setting [2] turned out to be 95%.

Turning to `CC(c1cccc(C(=O)NCc2ccccn2)c1)c1c(O)c2ccccc2oc1=O` (centres unmarked) [Example 27, Coumarin, 4-hydroxy-3-[1-[3-[[[(2-pyridinyl)methyl]amino]carbonyl]phenyl]ethyl]-], under setting [6], the inhibition at 1 µM was < 10%. Besides, the inhibition at 10 µM under setting [1] was < 10%. In addition, the inhibition at 100 µM under setting [2] was determined as 72%.

Take `CC(c1cccc(C(=O)NCc2ccccc2)c1)c1c(O)c2ccccc2oc1=O` (centres unmarked) [Example 28, Coumarin, 4-hydroxy-3-[1-[3-[[(phenylmethyl)amino]carbonyl]phenyl]ethyl]-]: under setting [6], the inhibition at 1 µM was < 10%. Moreover, under setting [1], the inhibition at 10 µM amounted to 17.9%. Moreover, under setting [2], the inhibition at 100 µM is 81%.

As for `CC(c1cccc(C(=O)NC2c3ccccc3CC2O)c1)c1c(O)c2ccccc2oc1=O` (centres unmarked) [Example 29, Benzamide, N-(2,3-dihydro-2-hydroxy-1H-inden-1-yl)-3-[1-(4-hydroxy-2-oxo-2H-1-benzopyran-3-yl)ethyl]-], the inhibition at 1 µM under setting [6] is < 10%. In addition, under setting [1], the inhibition at 10 µM turned out to be 54.2%. Under setting [2], the inhibition at 100 µM was 98.4%.
